Experimental data from paper PMC7382147, “An effective UFLC–MS/MS method used to study pharmacokinetics of major constituents of Fukeqianjin formula in rat plasma” (Chinese Medicine, 2020).

Experiments:
[1] = Pharmacokinetic study in rat plasma after oral administration of FKQJF extract (UFLC–MS/MS); type: in vivo, Sprague-Dawley (SD) rats; conditions: for AUC(0-inf) / AUC(0-t) / Cmax / half-life / MRT last / MRT inf / Tmax: Sprague-Dawley, oral FKQJF extract, single dose 3.2 g/kg, mean ± SD; for MRT last: read-out: MRT0→t; for MRT inf: read-out: MRT0→∞; for Tmax: read-out: Tmax; for shape of the plasma concentration–time curve / time of first peak of the concentration–time curve / time of second peak of the concentration–time curve: oral FKQJF extract 3.2 g/kg; for time of first peak of the concentration–time curve / time of second peak of the concentration–time curve: post dose
Experimental: (§1) Aliquots of 100 μL plasma samples were mixed with 10 μL I.S. samples (1 μg/mL, in MeOH), then added with 500 μL ACN, respectively, and vortexed for 5 min, centrifugated at 10,000 rpm for 10 min, the supernatants were transferred into clean vials and dried in a vacuum centrifugal concentrator at 1200 rpm, 37 °C. After that, 100 μL ACN was added and ultrasonic (frequency 40 kHz, power 250 W) extracted for 5 min to dissolve the dry residue, vortexed for 1 min and centrifugated at 10,000 rpm for 5 min, 1 μL of each final supernatant was injected into UFLC–MS/MS for analysis.
An 8050 UFLC–MS/MS system equipped with LC-30A binary pump, a SIL-30AC autosampler, a SPD-M30A PDA detector, a CTO-20AC column oven, and a 8050 triple quadrupole mass spectrometer with an electrospray ionization source (ESI) was applied to detect and quantify FKQJF compounds in plasma samples. Data were acquired and processed with the software LabSolution (Ver. 5.6).
A Kinetex XB-C18 HPLC column (100 × 2.1 mm, 2.6 μm) linked with an equivalent guard column was used for chromatographic separation. The aqueous phase contained 0.2% formic acid was used as mobile phase A, and organic phase ACN as mobile phase B. The gradient elution method using in this program was: 3–5 min, 28–31% B; 5–7 min, 31–34% B; 7–9 min, 34–65% B; 9–10 min, 65–95% B; 10–11.5 min, 95% B. The flow rate of mobile phase, column temperature and autosampler temperature was 0.4 mL/min, 30 °C and 4 °C, respectively. The injection volume of each sample was set as 1 μL. The main MS spectrum parameters were set as follows: the flow rate of drying gas (N2) was 10.0 L/min; the atomized gas was 3.0 L/min and the heating gas flow rate was 10.0 L/min. The main temperatures of interface, desolvation and heat block was 300 °C, 250 °C and 400 °C, respectively. And, the interface and detector voltage were 3 kV and 1.8 kV.
Rats were divided into a blank group and a FKQJF administration group (6 rats for each), and fasted for 24 h. Each rat of the administration group was given FKQJF extract suspension at a single dose of 3.2 g FKQJF/kg body weight through oral administration in parallel. Blood samples (0.25 mL) were gathered from the orbital venous plexus of each rat, with FKQJF group gathered at 14 serial timepoints (6 rats for each) as 0.083 h, 0.16 h, 0.33 h, 0.5 h, 0.75 h, 1.0 h, 1.5 h, 2 h, 3 h, 4 h, 6 h, 8 h, 12 h and 24 h after drug administration. The blood samples were centrifugated at 6000g for 10 min to isolate plasma and stored at − 20 °C for further analysis.
Data were analyzed using the Drug and Statistics (DAS) Software version 2.0 (DAS 2.0, Mathematical Pharmacology Professional Committee of China, Shanghai, China). The non-compartmental mode was applied to obtain the following PK parameters: area under the plasma concentration–time curve from time zero to the time of last quantifiable concentration (AUC0→t) and area under the plasma concentration–time curve to time infinity (AUC0→∞), the elimination half-life (t1/2), mean retention time to last sampling time (MRT0→t) and mean retention time to infinity (MRT0→∞). The maximum plasma concentration (Cmax) and the time to maximum concentration (Tmax) were observed directly from the concentration–time (C–T) curves and measured data. All data are presented as mean ± SD.

[2] = Ordinary stability of QC samples (room temperature for 8 h); type: physicochemical, rat; conditions: plasma QC, room temperature 8 h
Experimental: as §1
(§2) Six replicates of low, medium and high concentrations of quality control (QC) samples were used to verify the stabilities under different conditions including: place at room temperature for 8 h, freeze (− 20 °C) and thaw for three times, and store at − 20 °C for 20 days.

[3] = Freeze–thaw stability of QC samples (−20 °C, three times); type: physicochemical, rat; conditions: plasma QC, freeze (−20 °C) and thaw three times
Experimental: as §1, §2

[4] = Long-term stability of QC samples (−20 °C for 20 days); type: physicochemical, rat; conditions: plasma QC
Experimental: as §1, §2

Structure (SMILES) | AUC(0-inf) [1] [ng·h/mL] | AUC(0-t) [1] [ng·h/mL] | Cmax [1] [ng/mL] | half-life [1] [h] | MRT last [1] [h] | MRT inf [1] [h] | Tmax [1] [h] | shape of the plasma concentration–time curve [1] | Long-term stability Mean ([4]; spiked 200 ng/mL) [%] | Ordinary stability Mean ([2]; spiked 50 ng/mL) [%] | Ordinary stability Mean ([2]; spiked 250 ng/mL) [%] | Freeze–thaw stability Mean ([3]; spiked 50 ng/mL) [%] | Freeze–thaw stability Mean ([3]; spiked 250 ng/mL) [%] | Long-term stability Mean ([4]; spiked 50 ng/mL) [%] | Long-term stability Mean ([4]; spiked 250 ng/mL) [%] | Long-term stability Mean ([4]; spiked 500 ng/mL) [%] | further results
COc1ccc2cc3[n+](cc2c1OC)CCc1cc2c(cc1-3)OCO2 [Analyte 13, berberine] | 5630 ± 2430 | 3800 ± 171 | 619 ± 84.6 | 38.8 ± 53.2 | 8.04 ± 0.88 | 39 ± 46.5 | 8 | double-peaks | 114.48 | – | – | – | – | – | – | – | Ordinary stability Mean ([2]; spiked 5 ng/mL): 84.57%; Ordinary stability Mean ([2]; spiked 100 ng/mL): 103.56%; Ordinary stability Mean ([2]; spiked 200 ng/mL): 113.97%; Freeze–thaw stability Mean ([3]; spiked 5 ng/mL): 97.72%; Freeze–thaw stability Mean ([3]; spiked 100 ng/mL): 110.44%; Freeze–thaw stability Mean ([3]; spiked 200 ng/mL): 104.87%; Long-term stability Mean ([4]; spiked 5 ng/mL): 102.75%; Long-term stability Mean ([4]; spiked 100 ng/mL): 81.78%
COC(=O)c1ccc(O)cn1 [Analyte 2, 5-hydroxypicolinic acid methyl ester] | 3110 ± 38.7 | 2970 ± 169 | 477 ± 33.3 | 5.27 ± 2.94 | 6.51 ± 0.66 | 8.09 ± 1.32 | 2.17 ± 0.76 | – | – | 106.33 | 86.35 | 98.92 | 99.07 | 87.08 | 83.50 | 112.17 | Ordinary stability Mean ([2]; spiked 500 ng/mL): 95.34%; Freeze–thaw stability Mean ([3]; spiked 500 ng/mL): 86.48%
COc1cc2c(cc1OC)-c1cc3ccc(OC)c(OC)c3c[n+]1CC2 [Analyte 11, palmatine] | 1640 ± 155 | 691 ± 93.3 | 134 ± 31.8 | 9.16 ± 2.09 | 11 ± 0.99 | 14.2 ± 8.89 | 1.67 ± 0.29 | – | 89.65 | – | – | – | – | – | – | – | Ordinary stability Mean ([2]; spiked 5 ng/mL): 92.36%; Ordinary stability Mean ([2]; spiked 100 ng/mL): 81.64%; Freeze–thaw stability Mean ([3]; spiked 5 ng/mL): 94.51%; Freeze–thaw stability Mean ([3]; spiked 100 ng/mL): 98.74%; Long-term stability Mean ([4]; spiked 5 ng/mL): 87.02%; Long-term stability Mean ([4]; spiked 100 ng/mL): 101.38%
O=c1c(-c2ccc(O)cc2)coc2cc(O[C@@H]3O[C@H](CO)[C@@H](O)[C@H](O)[C@H]3O)cc(O)c12 [Analyte 7, genistin] | 550 ± 70.7 | 468 ± 48.4 | 87.7 ± 26.6 | 7.68 ± 3.01 | 9.04 ± 0.68 | 14.2 ± 3.28 | 0.17 | double-peaks | – | 93.52 | 84.19 | 84.84 | 92.61 | 118.09 | 104.72 | 97.81 | –
O=C(O)c1ccccc1O [Analyte 8, salicylic acid] | 2140 ± 168 | 1800 ± 155 | 433 ± 53.1 | 2.7 ± 0.54 | 2.88 ± 0.15 | 4.31 ± 0.67 | 1.67 ± 0.29 | double-peaks | – | 95.42 | 108.42 | 80.11 | 102.50 | 109.80 | 114.13 | 87.97 | Ordinary stability Mean ([2]; spiked 500 ng/mL): 103.60%; Freeze–thaw stability Mean ([3]; spiked 500 ng/mL): 88.21%

Second part, led by results:

AUC(0-inf) [1] [ng·h/mL] | AUC(0-t) [1] [ng·h/mL] | Cmax [1] [ng/mL] | half-life [1] [h] | MRT last [1] [h] | MRT inf [1] [h] | Tmax [1] [h] | shape of the plasma concentration–time curve [1] | Long-term stability Mean ([4]; spiked 200 ng/mL) [%] | Ordinary stability Mean ([2]; spiked 50 ng/mL) [%] | Ordinary stability Mean ([2]; spiked 250 ng/mL) [%] | Freeze–thaw stability Mean ([3]; spiked 50 ng/mL) [%] | Freeze–thaw stability Mean ([3]; spiked 250 ng/mL) [%] | Long-term stability Mean ([4]; spiked 50 ng/mL) [%] | Long-term stability Mean ([4]; spiked 250 ng/mL) [%] | Long-term stability Mean ([4]; spiked 500 ng/mL) [%] | Structure (SMILES) | further results
194 ± 27.9 | 74.7 ± 8.31 | 10.2 ± 0.58 | 33.6 ± 27.1 | 9.85 ± 0.85 | 48.2 ± 39.8 | 1.83 ± 0.29 | double-peaks | 86.82 | – | – | – | – | – | – | – | CCC/C=C1\OC(=O)C2=C1CCC=C2 [Analyte 18, Z-ligustilide] | Ordinary stability Mean ([2]; spiked 20 ng/mL): 107.46%; Ordinary stability Mean ([2]; spiked 200 ng/mL): 86.65%; Ordinary stability Mean ([2]; spiked 400 ng/mL): 106.31%; Freeze–thaw stability Mean ([3]; spiked 20 ng/mL): 88.16%; Freeze–thaw stability Mean ([3]; spiked 200 ng/mL): 112.10%; Freeze–thaw stability Mean ([3]; spiked 400 ng/mL): 104.63%; Long-term stability Mean ([4]; spiked 20 ng/mL): 114.56%; Long-term stability Mean ([4]; spiked 400 ng/mL): 118.76%
480 ± 71.9 | 442 ± 59.5 | 186 ± 19 | 1.79 ± 0.2 | 2.45 ± 0.19 | 3.1 ± 0.33 | 1 ± 0.43 | double-peaks | – | – | – | – | – | – | – | – | C=C1CC[C@@H]2[C@](C)(CO)[C@H](O)CC[C@@]2(C)[C@@H]1C/C=C1/C(=O)OC[C@H]1O [Analyte 12, andrographolide] | time of first peak of the concentration–time curve [1]: 0 to 1 h; time of second peak of the concentration–time curve [1]: 1.5 to 3 h; Ordinary stability Mean ([2]; spiked 60 ng/mL): 115.56%; Ordinary stability Mean ([2]; spiked 300 ng/mL): 107.50%; Ordinary stability Mean ([2]; spiked 600 ng/mL): 85.93%; Freeze–thaw stability Mean ([3]; spiked 60 ng/mL): 84.52%; Freeze–thaw stability Mean ([3]; spiked 300 ng/mL): 86.83%; Freeze–thaw stability Mean ([3]; spiked 600 ng/mL): 93.19%; Long-term stability Mean ([4]; spiked 60 ng/mL): 115.89%; Long-term stability Mean ([4]; spiked 300 ng/mL): 94.37%; Long-term stability Mean ([4]; spiked 600 ng/mL): 96.64%
81.1 ± 19.4 | 74.3 ± 17.5 | 47.7 ± 5.92 | 1.2 ± 0.74 | 2.21 ± 0.48 | 3.05 ± 1.01 | 1.42 ± 0.63 | double-peaks | – | – | – | – | – | – | – | – | C=C1CC[C@@H]2[C@](C)(CO)[C@H](O)CC[C@@]2(C)[C@@H]1/C=C/C1=CCOC1=O [Analyte 15, 14-deoxy-11,12-didehydro-andrographolide] | time of first peak of the concentration–time curve [1]: 0 to 1 h; time of second peak of the concentration–time curve [1]: 1.5 to 3 h; Ordinary stability Mean ([2]; spiked 60 ng/mL): 89.92%; Ordinary stability Mean ([2]; spiked 300 ng/mL): 119.43%; Ordinary stability Mean ([2]; spiked 600 ng/mL): 82.90%; Freeze–thaw stability Mean ([3]; spiked 60 ng/mL): 114.11%; Freeze–thaw stability Mean ([3]; spiked 300 ng/mL): 105.94%; Freeze–thaw stability Mean ([3]; spiked 600 ng/mL): 118.41%; Long-term stability Mean ([4]; spiked 60 ng/mL): 100.55%; Long-term stability Mean ([4]; spiked 300 ng/mL): 98.43%; Long-term stability Mean ([4]; spiked 600 ng/mL): 88.35%
